Measurements as given in patent EP0810221A1 (MITSUBISHI CHEMICAL CORPORATION, priority 1995, dated 1996).

Key:
[1] = target: T1, cathepsin B (Sigma, C-6286) (Bos taurus, UniProt P07688); assay: Inhibitory activity against cathepsin B; format: biochemical; details: Inhibitory activity against cathepsin B (Table-5)
T1 construct: purchased Sigma C-6286
Method: Inhibitory activity against cathepsin B (Sigma, C-6286) was determined according to a method described in a literature (Biochemical Journal, Vol. 201, p. 189, 1982).

m-Calpain = target: T2, m-Calpain (Rattus norvegicus, UniProt Q07009); assay: Inhibitory activity against calpain (m-Calpain purified from brains of rats); format: biochemical
T2 construct: m-Calpain was purified from brains of rats; from tissue; host or cells: rat brain
T2 sequence (Q07009 20-700 limits assumed): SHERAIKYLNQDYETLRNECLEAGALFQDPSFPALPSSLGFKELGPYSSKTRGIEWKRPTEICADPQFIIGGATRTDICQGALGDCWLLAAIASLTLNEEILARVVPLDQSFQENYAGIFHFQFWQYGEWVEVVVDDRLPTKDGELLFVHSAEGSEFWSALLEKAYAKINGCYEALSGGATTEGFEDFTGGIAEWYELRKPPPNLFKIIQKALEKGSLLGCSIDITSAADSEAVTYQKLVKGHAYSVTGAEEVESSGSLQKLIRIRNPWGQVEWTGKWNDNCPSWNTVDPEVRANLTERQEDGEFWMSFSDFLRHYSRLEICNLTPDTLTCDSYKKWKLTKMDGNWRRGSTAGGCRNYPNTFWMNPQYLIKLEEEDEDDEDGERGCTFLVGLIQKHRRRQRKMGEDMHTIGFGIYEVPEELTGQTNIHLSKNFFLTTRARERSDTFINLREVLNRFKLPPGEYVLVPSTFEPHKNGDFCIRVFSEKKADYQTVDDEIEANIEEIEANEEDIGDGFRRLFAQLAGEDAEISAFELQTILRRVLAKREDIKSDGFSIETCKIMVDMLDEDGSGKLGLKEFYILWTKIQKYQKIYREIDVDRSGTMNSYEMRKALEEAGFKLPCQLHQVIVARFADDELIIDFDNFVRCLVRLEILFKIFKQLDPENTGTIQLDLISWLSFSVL
T2 sequence (Q64537 1-270 partner): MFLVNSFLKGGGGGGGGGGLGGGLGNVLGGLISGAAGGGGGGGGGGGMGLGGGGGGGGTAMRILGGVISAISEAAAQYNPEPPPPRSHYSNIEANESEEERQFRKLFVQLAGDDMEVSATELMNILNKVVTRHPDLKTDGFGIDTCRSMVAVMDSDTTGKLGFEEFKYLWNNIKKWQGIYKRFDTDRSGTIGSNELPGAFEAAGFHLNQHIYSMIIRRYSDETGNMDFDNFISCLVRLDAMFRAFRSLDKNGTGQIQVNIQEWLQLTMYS
Method: m-Calpain was purified from brains of rats according to a method described in a literature (Journal of Biological Chemistry, Vol. 259, p. 3210, 1984), and the inhibitory activity was determined in a manner according to a published method (Journal of Biological Chemistry, Vol. 259, p. 12489, 1984).

[2] = Inhibitory activity against calpain (Table-6)
[3] = Inhibitory activity against calpain (continuation of Table-6)

| Compound | IC50 [1] [nM] | IC50 (m-Calpain; [2]) [nM] | IC50 (m-Calpain; [3]) [nM] |
| --- | --- | --- | --- |
| CC(C)C[C@H](NC(=O)OCc1ccc(Cl)cc1)C(=O)N[C@H]1CCOC1O (stereo partly drawn) [Example 17, (3S)-3-{(S)-2-(4-chlorobenzyloxycarbonylamino)-4-methylvalerylamino}-2-tetrahydrofuranol] | 640 | 390 |  |
| Cc1ccccc1COC(=O)N[C@@H](CC(C)C)C(=O)N[C@H]1CCOC1O (stereo partly drawn) [Example 18, (3S)-3-{(S)-4-methyl-2-(2-methylbenzyloxycarbonylamino)valerylamino}-2-tetrahydrofuranol] | 580 | 440 |  |
| Cc1ccc(COC(=O)N[C@@H](CC(C)C)C(=O)N[C@H]2CCOC2O)cc1 (stereo partly drawn) [Example 19, (3S)-3-{(S)-4-methyl-2-(4-methylbenzyloxycarbonylamino)valerylamino}-2-tetrahydrofuranol] | 890 | 480 |  |
| COc1ccccc1COC(=O)N[C@@H](CC(C)C)C(=O)N[C@H]1CCOC1O (stereo partly drawn) [Example 20, (3S)-3-{(S)-2-(2-methoxybenzyloxycarbonylamino)-4-methylvalerylamino)-2-tetrahydrofuranol] | 1050 | 560 |  |
| COc1ccc(COC(=O)N[C@@H](CC(C)C)C(=O)N[C@H]2CCOC2O)cc1 (stereo partly drawn) [Example 21, (3S)-3-{(S)-2-(4-methoxybenzyloxycarbonylamino)-4-methylvalerylamino}-2-tetrahydrofuranol] | 1170 | 340 |  |
| CC(C)C[C@H](NC(=O)OCC1CCCCO1)C(=O)N[C@H]1CCOC1O (stereo partly drawn) [Example 24, (3S)-3-{(S)-4-methyl-2-(2-tetrahydropyranylmethoxycarbonylamino)valerylamino}-2-tetrahydrofuranol] | 2900 | 1300 |  |
| CC(C)C[C@H](NC(=O)OCc1ccccn1)C(=O)N[C@H]1CCOC1O (stereo partly drawn) [Example 25, (3S)-3-{(S)-4-methyl-2-(2-pyridylmethoxycarbonylamino)valerylamino}-2-tetrahydrofuranol] | 2900 | 1050 |  |
| CC(C)C[C@H](NC(=O)OC1CCCCC1)C(=O)N[C@H]1CCOC1O (stereo partly drawn) [Example 27, (3S)-3-((S)-2-cyclohexyloxycarbonylamino-4-methylvalerylamino)-2-tetrahydrofuranol] | 1200 | 650 |  |
| CC(C)C[C@H](NC(=O)Oc1ccccc1)C(=O)N[C@H]1CCOC1O (stereo partly drawn) [Example 28, (3S)-3-((S)-4-methyl-2-phenoxycarbonylaminovalerylamino)-2-tetrahydrofuranol] | 1700 | 520 |  |
| CC(C)C[C@H](NC(=O)Cc1cccc2ccccc12)C(=O)N[C@H]1CCOC1O (stereo partly drawn) [Example 33, (3S)-3-{(S)-4-methyl-2-(1-naphthylacetylamino)valerylamino}-2-tetrahydrofuranol] | 950 | 110 |  |
| CC(C)C[C@H](NC(=O)COc1ccccc1)C(=O)N[C@H]1CCOC1O (some centres unmarked) [Example 34] | 1350 | 330 |  |
| CC(C)C[C@H](NC(=O)c1ccccc1)C(=O)N[C@H]1CCOC1O (stereo partly drawn) [Example 39, (3S)-3-((S)-2-benzoylamino-4-methylvalerylamino)-2-tetrahydrofuranol] | 200 | 370 |  |
| CC(C)C[C@H](NC(=O)c1cccc(F)c1)C(=O)N[C@H]1CCOC1O (stereo partly drawn) [Example 41, (3S)-3-{(S)-2-(3-fluorobenzoylamino)-4-methylvalerylamino}-2-tetrahydrofuranol] | 870 | 1150 |  |
| CC(C)C[C@H](NC(=O)c1ccc(F)cc1)C(=O)N[C@H]1CCOC1O (stereo partly drawn) [Example 42, (3S)-3-{(S)-2-(4-fluorobenzoylamino)-4-methylvalerylamino}-2-tetrahydrofuranol] | 550 | 820 |  |
| CC(C)C[C@H](NC(=O)c1ccc(Cl)cc1)C(=O)N[C@H]1CCOC1O (stereo partly drawn) [Example 43, (3S)-3-{(S)-2-(4-chlorobenzoylamino)-4-methylvalerylamino}-2-tetrahydrofuranol] | 140 | 360 |  |
| Cc1ccccc1C(=O)N[C@@H](CC(C)C)C(=O)N[C@H]1CCOC1O (stereo partly drawn) [Example 44, (3S)-3-{(S)-4-methyl-2-(2-methylbenzoylamino)valerylamino}-2-tetrahydrofuranol] | 1450 | 580 |  |

| Compound | IC50 [1] [nM] | IC50 (m-Calpain; [2]) [nM] | IC50 (m-Calpain; [3]) [nM] |
| --- | --- | --- | --- |
| Cc1cccc(C(=O)N[C@@H](CC(C)C)C(=O)N[C@H]2CCOC2O)c1 (stereo partly drawn) [Example 45, (3S)-3-{(S)-4-methyl-2-(3-methylbenzoylamino)valerylamino}-2-tetrahydrofuranol] | 490 | 560 |  |
| Cc1ccc(C(=O)N[C@@H](CC(C)C)C(=O)N[C@H]2CCOC2O)cc1C (stereo partly drawn) [Example 48, (3S)-3-{(S)-2-(3,4-dimethylbenzoylamino)-4-methylvalerylamino}-2-tetrahydrofuranol] | 86 | 380 |  |
| CCc1ccc(C(=O)N[C@@H](CC(C)C)C(=O)N[C@H]2CCOC2O)cc1 (stereo partly drawn) [Example 50, (3S)-3-{(S)-2-(4-ethylbenzoylamino)-4-methylvalerylamino}-2-tetrahydrofuranol] | 200 | 650 |  |
| CC(C)C[C@H](NC(=O)c1ccc(C(F)(F)F)cc1)C(=O)N[C@H]1CCOC1O (stereo partly drawn) [Example 51, (3S)-3-{(S)-4-methyl-2-(4-trifluoromethylbenzoylamino)valerylamino}-2-tetrahydrofuranol] | 210 | 480 |  |
| COc1ccc(C(=O)N[C@@H](CC(C)C)C(=O)N[C@H]2CCOC2O)cc1 (stereo partly drawn) [Example 53, (3S)-3-{(S)-2-(4-methoxybenzoylamino)-4-methylvalerylamino}-2-tetrahydrofuranol] | 150 | 670 |  |
| COc1cccc(OC)c1C(=O)N[C@@H](CC(C)C)C(=O)N[C@H]1CCOC1O (stereo partly drawn) [Example 55, (3S)-3-{(S)-2-(2,6-dimethoxybenzoylamino)-4-methylvalerylamino}-2-tetrahydrofuranol] | 1650 | 840 |  |
| COc1cc(OC)cc(C(=O)N[C@@H](CC(C)C)C(=O)N[C@H]2CCOC2O)c1 (stereo partly drawn) [Example 56, (3S)-3-{(S)-2-(3,5-dimethoxybenzoylamino)-4-methylvalerylamino}-2-tetrahydrofuranol] | 900 | 640 |  |
| CCOc1ccc(C(=O)N[C@@H](CC(C)C)C(=O)N[C@H]2CCOC2O)cc1 (stereo partly drawn) [Example 57, (3S)-3-{(S)-2-(4-ethoxybenzoylamino)-4-methylvalerylamino}-2-tetrahydrofuranol] | 240 |  | 250 |
| CC(C)C[C@H](NC(=O)c1ccc2c(c1)OCO2)C(=O)N[C@H]1CCOC1O (stereo partly drawn) [Example 58, (3S)-3-{(S)-4-methyl-2-(3,4-methylenedioxybenzoylamino)valerylamino}-2-tetrahydrofuranol] | 460 |  | 440 |
| CC(C)C[C@H](NC(=O)c1cccc2ccccc12)C(=O)N[C@H]1CCOC1O (stereo partly drawn) [Example 59, (3S)-3-{(S)-4-methyl-2-(1-naphthoylamino)valerylamino}-2-tetrahydrofuranol] | 800 |  | 400 |
| CC(C)C[C@H](NC(=O)c1ccc2ccccc2c1)C(=O)N[C@H]1CCOC1O (stereo partly drawn) [Example 60, (3S)-3-{(S)-4-methyl-2-(2-naphthoylamino)valerylamino}-2-tetrahydrofuranol] | 34 |  | 470 |
| CC(C)C[C@H](NC(=O)c1ccco1)C(=O)N[C@H]1CCOC1O (stereo partly drawn) [Example 61, (3S)-3-{(S)-2-(2-furoylamino)-4-methylvalerylamino}-2-tetrahydrofuranol] | 1200 |  | 350 |
| CCc1cc(C(=O)N[C@@H](CC(C)C)C(=O)N[C@H]2CCOC2O)n(C)n1 (stereo partly drawn) [Example 62, (3S)-3-{(S)-2-(3-ethyl-1-methyl-5-pyrazole)carbonylamino-4-methylvalerylamino}-2-tetrahydrofuranol] | 500 |  | 1000 |
| COc1ccc(C=CC(=O)N[C@@H](CC(C)C)C(=O)N[C@H]2CCOC2O)cc1 (stereo partly drawn) [Example 65, (3S)-3-{(S)-2-(4-methoxycinnamoylamino)-4-methylvalerylamino}-2-tetrahydrofuranol] | 190 |  | 700 |
| CC(C)C[C@H](NS(=O)(=O)c1cccc2ccccc12)C(=O)N[C@H]1CCOC1O (stereo partly drawn) [Example 75, (3S)-3-{(S)-4-methyl-2-(1-naphtylsulfonylamino)valerylamino}-2-tetrahydrofuranol] | 2400 |  | 380 |
